{"source": "ChEMBL document CHEMBL1250437", "about": "“Callyaerins A-F and H, new cytotoxic cyclic peptides from the Indonesian marine sponge Callyspongia aerizusa” (Bioorg Med Chem, 2010)", "key": {"[1]": {"assay": "Toxicity in brine shrimp assessed as mortality at 50 ug/ml", "type": "organism-based", "conditions": "artemia, in vivo; read-out: Activity"}, "[2]": {"assay": "Toxicity in brine shrimp assessed as mortality at 20 ug/ml", "type": "organism-based", "conditions": "artemia, in vivo; read-out: Activity"}, "L5178Y": {"tested_on": "L5178Y", "assay": "Cytotoxicity against mouse L5178Y cells", "type": "functional", "conditions": "read-out: ED50 (the source's name)"}, "PC-12": {"tested_on": "PC-12", "assay": "Cytotoxicity against rat PC12 cells", "type": "functional", "conditions": "read-out: ED50 (the source's name)"}, "Bacillus subtilis": {"tested_on": "Bacillus subtilis", "assay": "Antimicrobial activity against Bacillus subtilis at 5 to 10 uL", "type": "functional"}, "HeLa": {"tested_on": "HeLa", "assay": "Cytotoxicity against human HeLa cells", "type": "functional", "conditions": "read-out: ED50 (the source's name)"}, "Staphylococcus aureus": {"tested_on": "Staphylococcus aureus", "assay": "Antimicrobial activity against Staphylococcus aureus at 5 to 10 uL", "type": "functional"}, "Escherichia coli": {"tested_on": "Escherichia coli", "assay": "Antimicrobial activity against Escherichia coli at 5 to 10 uL", "type": "functional"}, "Candida albicans": {"tested_on": "Candida albicans", "assay": "Antimicrobial activity against Candida albicans at 5 to 10 uL", "type": "functional"}}, "note": "pEC50: −log10 of the molar value."}
{"compound": "CC[C@H](C)[C@H](NC(=O)[C@@H]1CCCN1C(=O)/C1=C\\N[C@@H](C(C)C)C(=O)N2CCC[C@H]2C(=O)N[C@@H](C(C)C)C(=O)N[C@@H](Cc2ccccc2)C(=O)N2CCC[C@H]2C(=O)N2CCC[C@H]2C(=O)N[C@@H](CC(C)C)C(=O)N1)C(=O)O", "note": "[CALLYEARIN H]", "values": [{"measurement": "mortality at 50 ug/ml", "setting": "[1]", "result": 55, "unit": "%"}, {"measurement": "mortality at 20 ug/ml", "setting": "[2]", "result": 30, "unit": "%"}, {"measurement": "pEC50", "setting": "L5178Y", "result": 6.32}]}
{"compound": "CC[C@H](C)[C@H](NC(=O)[C@@H](NC(=O)[C@@H]1CCCN1C(=O)/C1=C/N[C@@H](CC(C)C)C(=O)N2CCC[C@H]2C(=O)N[C@@H](Cc2ccccc2)C(=O)N[C@@H](Cc2ccccc2)C(=O)N2CCC[C@H]2C(=O)N2CCC[C@H]2C(=O)N[C@@H](C(C)C)C(=O)N1)[C@@H](C)CC)C(=O)NCC(=O)O", "note": "[CALLYAERIN E]", "values": [{"measurement": "mortality at 50 ug/ml", "setting": "[1]", "result": 70, "unit": "%"}, {"measurement": "pEC50", "setting": "PC-12", "result": 5.42}, {"measurement": "inhibition zone (IZ)", "setting": "Bacillus subtilis", "result": 15, "unit": "mm"}, {"measurement": "pEC50", "setting": "HeLa", "result": 5.47}, {"measurement": "inhibition zone (IZ)", "setting": "Staphylococcus aureus", "result": 9, "unit": "mm"}, {"measurement": "mortality at 20 ug/ml", "setting": "[2]", "result": 45, "unit": "%"}, {"measurement": "pEC50", "setting": "L5178Y", "result": 6.41}, {"measurement": "inhibition zone (IZ)", "setting": "Escherichia coli", "result": 9, "unit": "mm"}, {"measurement": "inhibition zone (IZ)", "setting": "Candida albicans", "result": 20, "unit": "mm"}]}
{"compound": "CC[C@H](C)[C@H](NC(=O)[C@H](Cc1ccccc1)NC(=O)[C@H](CC(C)C)NC(=O)[C@@H]1CCCN1C(=O)/C1=C\\N[C@@H](C(C)C)C(=O)N2CCC[C@H]2C(=O)N[C@@H](C(C)C)C(=O)N[C@@H](Cc2ccccc2)C(=O)N2CCC[C@H]2C(=O)N1)C(=O)O", "note": "[CALLYAERIN F]", "values": [{"measurement": "pEC50", "setting": "PC-12", "result": "< 5.05"}, {"measurement": "inhibition zone (IZ)", "setting": "Bacillus subtilis", "result": 0, "unit": "mm"}, {"measurement": "pEC50", "setting": "HeLa", "result": "< 5.05"}, {"measurement": "inhibition zone (IZ)", "setting": "Staphylococcus aureus", "result": 0, "unit": "mm"}, {"measurement": "pEC50", "setting": "L5178Y", "result": "< 5.05"}, {"measurement": "inhibition zone (IZ)", "setting": "Escherichia coli", "result": 0, "unit": "mm"}, {"measurement": "inhibition zone (IZ)", "setting": "Candida albicans", "result": 0, "unit": "mm"}]}
{"compound": "CC(C)C[C@@H]1NC(=O)[C@@H]2CCCN2C(=O)[C@H]2CCCN2C(=O)[C@@H]2CCCN2C(=O)[C@@H]2CCCN2C(=O)[C@H](CC(C)C)N/C=C(\\C(=O)N2CCC[C@H]2C(=O)N[C@@H](Cc2ccccc2)C(=O)N[C@@H](Cc2ccccc2)C(=O)N[C@@H](Cc2ccccc2)C(=O)O)NC1=O", "note": "[CALLYAERIN G]", "values": [{"measurement": "pEC50", "setting": "PC-12", "result": "< 5.10"}, {"measurement": "pEC50", "setting": "HeLa", "result": 5.35}, {"measurement": "pEC50", "setting": "L5178Y", "result": 6.39}]}
{"compound": "CC[C@@H](C)[C@@H]1NC(=O)[C@H]([C@@H](C)CC)NC(=O)[C@@H]2C[C@@H](O)CN2C(=O)[C@H]([C@H](C)CC)N/C=C(\\C(=O)N2CCC[C@H]2C(=O)N[C@H](C(=O)N[C@H](C(=O)O)[C@@H](C)CC)[C@@H](C)CC)NC(=O)[C@H](CC(C)C)NC(=O)[C@@H]2CCCN2C(=O)[C@@H]2CCCN2C(=O)[C@H](CC(C)C)NC1=O", "note": "[CALLYAERIN B]", "values": [{"measurement": "mortality at 50 ug/ml", "setting": "[1]", "result": 35, "unit": "%"}, {"measurement": "pEC50", "setting": "PC-12", "result": "< 5.10"}, {"measurement": "inhibition zone (IZ)", "setting": "Bacillus subtilis", "result": 0, "unit": "mm"}, {"measurement": "pEC50", "setting": "HeLa", "result": "< 5.10"}, {"measurement": "inhibition zone (IZ)", "setting": "Staphylococcus aureus", "result": 11, "unit": "mm"}, {"measurement": "mortality at 20 ug/ml", "setting": "[2]", "result": 15, "unit": "%"}, {"measurement": "pEC50", "setting": "L5178Y", "result": 5.38}, {"measurement": "inhibition zone (IZ)", "setting": "Escherichia coli", "result": 7, "unit": "mm"}, {"measurement": "inhibition zone (IZ)", "setting": "Candida albicans", "result": 15, "unit": "mm"}]}
{"compound": "CC[C@@H]1NC(=O)[C@@H]2C[C@@H](O)CN2C(=O)[C@@H]2CCCN2C(=O)[C@H](Cc2ccccc2)NC(=O)[C@H]([C@H](C)CC)NC(=O)[C@H]([C@H](C)CC)N/C=C(\\C(=O)N2CCC[C@H]2C(=O)N[C@H](C(=O)N[C@@H](CC(N)=O)C(=O)N[C@@H](C)C(=O)N[C@H](C(=O)O)[C@@H](C)CC)[C@@H](C)CC)NC(=O)[C@H](CC(C)C)NC1=O", "note": "[CALLYAERIN D]", "values": [{"measurement": "inhibition zone (IZ)", "setting": "Bacillus subtilis", "result": 12, "unit": "mm"}, {"measurement": "inhibition zone (IZ)", "setting": "Staphylococcus aureus", "result": 0, "unit": "mm"}, {"measurement": "pEC50", "setting": "L5178Y", "result": 5.52}, {"measurement": "inhibition zone (IZ)", "setting": "Escherichia coli", "result": 0, "unit": "mm"}, {"measurement": "inhibition zone (IZ)", "setting": "Candida albicans", "result": 0, "unit": "mm"}]}
{"compound": "CC[C@@H](C)[C@@H]1NC(=O)[C@H](C(C)C)NC(=O)[C@@H]2C[C@@H](O)CN2C(=O)[C@H]([C@@H](C)CC)N/C=C(\\C(=O)N2CCC[C@H]2C(=O)N[C@H](C(=O)N[C@@H](Cc2ccccc2)C(=O)NCC(N)=O)[C@@H](C)CC)NC(=O)[C@H](CC(C)C)NC(=O)[C@@H]2CCCN2C(=O)[C@@H]2CCCN2C(=O)[C@H](CC(C)C)NC1=O", "note": "[CALLYAERIN A]", "values": [{"measurement": "inhibition zone (IZ)", "setting": "Bacillus subtilis", "result": 0, "unit": "mm"}, {"measurement": "inhibition zone (IZ)", "setting": "Staphylococcus aureus", "result": 9, "unit": "mm"}, {"measurement": "pEC50", "setting": "L5178Y", "result": 5.44}, {"measurement": "inhibition zone (IZ)", "setting": "Escherichia coli", "result": 10, "unit": "mm"}, {"measurement": "inhibition zone (IZ)", "setting": "Candida albicans", "result": 25, "unit": "mm"}]}
